Patent US20250000940A1, “USE OF FRUCTUS LYCII GLUCOPEPTIDE” (NINGXIA QITAI TECHNOLOGY CO., LTD., priority 2021, published 2025)

Legend:
Type in all cases: in vivo, Kunming mice
MPTP model mice [1] = experiment: Pole-climbing test in MPTP model mice; conditions: intragastric for 2 weeks after modeling, 30 mg/kg (rasagiline 1 mg/kg), vs. MPTP group, n=6, FIG. 2
Procedure: Administration method: the mice were randomly divided into 6 groups with 6 mice in each group, i.e., the control group, the MPTP model group (intraperitoneal injection of MPTP, 30 mg/kg, established after five days of administration and two days of rest), the MPTP+Fructus lycii extract (water extraction) group (administration after modeling, 30 mg/kg, intragastric administration for two weeks), the MPTP+Fructus lycii polysaccharide group (administration after modeling, 30 mg/kg, intragastric administration for two weeks), the MPTP+Fructus lycii glucopeptide group (administration after modeling, 30 mg/kg, intragastric administration for 2 weeks), the MPTP+rasagiline group (administration after modeling, 1 mg/kg, intragastric administration for 2 weeks). Instruction: the pole-climbing test is a behavioral test to record the time difference of mice on the pole so as to detect the limb movement coordination of mice. The whole experiment was completed in a quiet and dark environment. The pole was composed of an iron frame with a diameter of 1 cm and a height of 60 cm and a small ball with a diameter of 1.5 cm fixed on its top. […] The time required for the mice to climb to the bottom from the beginning was recorded. If the time exceeded 1 minute, it was recorded as 1 minute. Each mouse was tested for 5 rounds each time, and the results were expressed as the average values.

MPTP model mice [2] = experiment: Rotarod test in MPTP model mice; conditions: intragastric for 2 weeks after modeling, 30 mg/kg (rasagiline 1 mg/kg), vs. MPTP group, n=6, FIG. 3
Procedure: Instruction: rotarod test was used to detect the motor coordination ability of mice by recording the time of the mice on the cylindrical rotarod using the rotarod fatigue apparatus. The test was conducted in a quiet and dark environment. The rotarod fatigue apparatus can accommodate five mice at a time for the test. Each mouse has a separate track, with a connected computer software for recording the time when the mouse falls. When the mouse rotates passively with the rotarod for more than two consecutive circles, the timing should also be stopped. Before restraint stress, the mice were trained for a week in advance to adapt, and each mouse was trained for three rounds every time. After restraint stress, the mice were detected once a week, and the parameter was set at a speed ramp from 5 r/min to 30 r/min at a constant rate within 5 min. The time of the mice on the rotarod within 5 min was recorded, and the time exceeding 5 min was recorded as 5 min. Each mouse was detected for 3 rounds each time, and the average value was calculated. The test interval of each group of mice was at least 30 min. Before each change of the mice, the apparatus was cleaned with 75% ethanol to remove the odor before the next group of test.

MPTP model mice [3] = experiment: CatWalk gait analysis in MPTP model mice; conditions: intragastric for 2 weeks after modeling, 30 mg/kg (rasagiline 1 mg/kg), vs. MPTP group, n=6, FIG. 4-7
Text: Instruction: CatWalk gait analysis is a system for analyzing the gait of rodents, including the balance maintenance ability, the use of limbs and the stability analysis of movement state and gait. The main accessories include built-in red LED light panel and green fluorescent glass panel, high-frequency camera under the glass panel, image transmission system and computer software and hardware. Before inspection, the camera height will be adjusted to 60 cm, the effective length and width of the runway will be delimited in the software, and the gain of the camera will be set to 28.12 dB. The process of each mouse passing through the glass plate smoothly was recorded at room temperature, and the longest time was set to 10 s, that is, the data was valid if the mouse passed through the set distance within 10 s. The principle of recording is that the paw prints of mice are illuminated by the fluorescent reflection of the fluorescent lamp in the glass panel, captured by the camera below and transmitted to the computer, and the recorded video data are statistically analyzed by the software of the system. According to the location of paw print, the pressure of paw on the glass panel, the distance between different paw prints, the velocity of mouse gait and the regularity of gait, the gait of mice was qualitatively and quantitatively analyzed. […]

C#CCN[C@@H]1CCc2ccccc21 [rasagiline, Rasagiline]
pole-climbing time (time to climb from top to bottom of the pole) (MPTP model mice [1]): significantly shorten the pole-climbing time
on-rod time (anti-fatigue time on the rotarod) (MPTP model mice [2]): significantly restore the on-rod time
gait behavior (average speed, maximum variation, cadence, number of steps) (MPTP model mice [3]): significantly restore the gait behavior disorder
